The text below walks through data of patent US20220332700A1, “NOVEL APOPTOSIS SIGNAL-REGULATING KINASE 1 INHIBITORS” (MANKIND PHARMA LTD, priority 2019, published 2022).

The IC50 is the midpoint of a concentration-inhibition curve.

Like-named read-outs stand apart in the source and are kept apart here.

One assay relates to Male C57BL/6 mice. The experiment in a line: Mouse model of Acetaminophen (APAP) induced Hepatotoxicity. As to conditions: l0mpk and 30mpk; APAP 300 mg/kg i.p.; 6h post APAP; dose dependent, comparable with selonsertib. It is filed as in vivo. The protocol: Male C57BL/6 mice, 20 to 24 grams body weight at the time of study initiation, were acclimatized at least for 1-3 days prior to experiment initiation. Based on body weight, animal were randomized to different groups and kept for overnight fasting. Animals were treated with test compounds and vehicle for control group. After 30 minutes, APAP (300 mg/kg) was administered by intraperitoneal route (i.p). A vehicle control group was also included in the study as a vehicle control for test compound as well as APAP. All animals were bled 6h post APAP administration from the retro-orbital plexus into appropriately labeled tubes. Serum ALT levels were measured in all groups.

For the next assay, the target named is T1, recombinant ASK1 (Homo sapiens, UniProt Q99683).
T1 construct: purchased Carna Biosciences
Put plainly: ASK1 Biochemical Assay (HTRF KinEASE-STK S3). In outline:
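Recombinant ASK1 (5 ng) preincubated with compound 1 h at 23 °C in MOPS pH 7 buffer with Mg-acetate, DTT, NP40, glycerol, BSA and 1% DMSO. Inhibition calculated against vehicle after substrate-blank subtraction.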

The target in another assay is T2, ASK2 (Homo sapiens, UniProt O95382).
T2 construct: purchased Carna Biosciences
T2 sequence (O95382 1-1288): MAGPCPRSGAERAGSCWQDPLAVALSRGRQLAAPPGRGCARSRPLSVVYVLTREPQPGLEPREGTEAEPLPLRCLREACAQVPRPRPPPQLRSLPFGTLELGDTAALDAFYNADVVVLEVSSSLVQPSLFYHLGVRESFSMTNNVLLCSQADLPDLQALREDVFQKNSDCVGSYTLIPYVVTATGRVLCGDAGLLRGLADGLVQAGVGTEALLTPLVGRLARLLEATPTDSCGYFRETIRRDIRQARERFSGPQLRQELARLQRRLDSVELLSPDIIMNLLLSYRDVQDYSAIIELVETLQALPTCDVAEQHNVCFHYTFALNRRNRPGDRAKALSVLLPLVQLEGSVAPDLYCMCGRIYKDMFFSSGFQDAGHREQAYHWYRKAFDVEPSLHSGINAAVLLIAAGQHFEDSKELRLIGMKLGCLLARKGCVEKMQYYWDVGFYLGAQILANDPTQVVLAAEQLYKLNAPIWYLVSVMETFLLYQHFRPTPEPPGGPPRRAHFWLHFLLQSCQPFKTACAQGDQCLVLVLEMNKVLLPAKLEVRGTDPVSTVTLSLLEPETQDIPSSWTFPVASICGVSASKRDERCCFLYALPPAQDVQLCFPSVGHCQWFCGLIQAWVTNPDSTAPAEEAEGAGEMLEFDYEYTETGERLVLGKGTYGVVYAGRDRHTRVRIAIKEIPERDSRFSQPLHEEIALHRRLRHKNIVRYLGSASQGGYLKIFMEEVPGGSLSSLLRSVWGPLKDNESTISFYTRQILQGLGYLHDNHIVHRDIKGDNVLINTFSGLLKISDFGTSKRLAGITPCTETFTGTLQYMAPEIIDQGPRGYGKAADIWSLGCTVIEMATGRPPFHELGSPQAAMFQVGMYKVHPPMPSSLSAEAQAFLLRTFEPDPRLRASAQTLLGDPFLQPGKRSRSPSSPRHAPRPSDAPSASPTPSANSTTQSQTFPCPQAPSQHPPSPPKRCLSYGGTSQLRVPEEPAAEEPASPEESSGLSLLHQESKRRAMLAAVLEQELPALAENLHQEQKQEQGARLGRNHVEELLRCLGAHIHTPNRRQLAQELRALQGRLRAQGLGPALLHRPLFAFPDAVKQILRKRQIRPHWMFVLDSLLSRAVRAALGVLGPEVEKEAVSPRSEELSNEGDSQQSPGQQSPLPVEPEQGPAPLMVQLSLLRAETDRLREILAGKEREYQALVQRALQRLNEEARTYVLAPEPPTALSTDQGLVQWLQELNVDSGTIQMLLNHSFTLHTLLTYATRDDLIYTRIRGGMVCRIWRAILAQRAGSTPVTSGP
The experiment in a line: ASK2 biochemical assay (selectivity assay). As to conditions: ATP 100 μM. The method, then:
ASK2 assay was performed to evaluate above mentioned example for its selectivity towards ASK1 with respect ASK 2.
ASK2 biochemical assay was standardized using ASK2 (Carna Biosciences), MBP biotin conjugate (Merk life science), ATP, streptavidin surelight APC (PerkinElmer) and Lance Eu-W1024-antiphospho threonine (PerkinElmer). Enzyme concentration, ATP, MBP biotin conjugate and antibodies were titrated for enzyme assay. Assay was carried out in freshly prepared ASK2 kinase buffer, 5 mM MOPS pH-7.2, 2.5 mM β-glycerophosphate, 5 mM magnesium chloride (MgCl2), 1 mM EGTA, 0.4 mM EDTA, 0.05 mM DTT and 0.05% BSA. DMSO was used as vehicle control with a final concentration of 1%. A 40 ng of ASK2 enzyme was incubated with compound for 1 hour at 23° C. on a shaker at 100rpm. ATP and MBP biotin conjugate (as substrate) was added at a final concentration of 100 μM and 0.1mg/ml respectively and incubated for 3 hours at 23° C. on a shaker at 100rpm. Detection reagents streptavidin surelight APC (55.56nM), lance Eu-W1024-antiphospho threonine antibody (1.11nM) and 1X lance detection buffer were added and incubated for 2 hour at room temperature on a shaker at 100rpm. Delta F ratios were calculated from data obtained at excitation (337 nm) and emission wavelengths (665 nm and 620-10 nm). Substrate blank values were considered as negative control. Values from negative control were subtracted from vehicle control and compound treated wells. Enzyme inhibition by compounds was calculated from vehicle controls, which represent uninterrupted enzyme's activity.

The mark [1] stands for this setting: ATP 100 μM, read-out: Biochemical Assay IC50.
Setting [2] is: comparison with Selonsertib, read-out: ASK1 biochemical Assay (IC50).
The mark [3] stands for this setting: selectivity table, read-out: ASK1 Biochemical Assay IC50.

T1 sequence (Q99683 654-971 limits assumed): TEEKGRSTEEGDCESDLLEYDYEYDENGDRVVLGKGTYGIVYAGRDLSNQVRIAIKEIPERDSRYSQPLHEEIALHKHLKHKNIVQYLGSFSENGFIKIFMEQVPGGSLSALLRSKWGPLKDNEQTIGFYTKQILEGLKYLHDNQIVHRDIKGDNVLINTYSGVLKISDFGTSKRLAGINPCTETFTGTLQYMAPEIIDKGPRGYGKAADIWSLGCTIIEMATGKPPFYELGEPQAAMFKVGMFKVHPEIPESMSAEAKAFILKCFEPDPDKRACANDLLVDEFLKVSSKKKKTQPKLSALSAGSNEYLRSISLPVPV

Turning to `CNC(=O)C1CCN(c2ccc(N3CCN(c4cccc(-c5nncn5C(C)C)n4)C3=O)cc2)CC1` [Example 1082, 1-(4-(3-(6-(4-isopropyl-4H-1,2,4-triazol-3-yl)pyridin-2-yl)-2-oxoimidazolidin-1-yl)phenyl)-N-methylpiperidine-4-carboxamide], the “reduction in serum ALT levels compared to vehicle” value (from here on “reduction in serum ALT levels”) with Male C57BL/6 mice was “significant reduction”. In addition, the IC50 on recombinant ASK1 (setting [1]) was under 50 nM; at recombinant ASK1 (setting [2]), 1 nM; at recombinant ASK1 (setting [3]) it was 1 nM; on ASK2, 8500 nM.

With `CC(C)n1cnnc1-c1cccc(N2CCN(c3ccc(N4CCOCC4)cc3)C2=O)n1` [Example 1043, 1-(6-(4-isopropyl-4H-1,2,4-triazol-3-yl)pyridin-2-yl)-3-(4-morpholinophenyl)imidazolidin-2-one], the “reduction in serum ALT levels” value in the assay with Male C57BL/6 mice is on record as “significant reduction”. The IC50 on recombinant ASK1 (setting [1]) was under 100 nM; at recombinant ASK1 (setting [2]) it was 4.1 nM; on recombinant ASK1 (setting [3]), 4.1 nM; at ASK2 it was over 10000 nM.

With `CC(C)n1cnnc1-c1cccc(N2CCN(c3ccc(N4CC(C#N)C4)cc3)C2=O)n1` [Example 1071, 1-(4-(3-(6-(4-isopropyl-4H-1,2,4-triazol-3-yl)pyridin-2-yl)-2-oxoimidazolidin-1-yl)phenyl)azetidine-3-carbonitrile], in the assay with Male C57BL/6 mice, the “reduction in serum ALT levels” value is listed as “significant reduction”. Further, the IC50 at recombinant ASK1 (setting [1]) was under 100 nM; at recombinant ASK1 (setting [2]), 3.8 nM; at recombinant ASK1 (setting [3]), 3.8 nM; at ASK2, over 10000 nM.

As to `CC(C)n1cnnc1-c1cccc(N2CCN(c3ccc(N4CCC(C(=O)N(C)C)CC4)cc3)C2=O)n1` [Example 1097, 1-(4-(3-(6-(4-isopropyl-4H-1,2,4-triazol-3-yl)pyridin-2-yl)-2-oxoimidazolidin-1-yl)phenyl)-N,N-dimethylpiperidine-4-carboxamide], the “reduction in serum ALT levels” value in the assay on Male C57BL/6 mice is recorded as “significant reduction”. Besides, the IC50 on recombinant ASK1 (setting [1]) was under 50 nM; on recombinant ASK1 (setting [2]), 3.8 nM; on recombinant ASK1 (setting [3]) it was 3.8 nM; against ASK2, 7900 nM.
